# Test results as given in patent US20120065228A1, “COMPOSITIONS AND METHODS FOR TREATING, CONTROLLING, REDUCING, OR AMELIORATING OCULAR INFLAMMATORY WITH LOWER RISK OF INCREASED INTRAOCULAR PRESSURE” (priority 2007, published 2012).
# “And” between values parts separate entries of the source, which are not always exact repeats. Equal values may be shown once.
# How the values were obtained:
# rabbit eyes = assay: Ophthalmic observations (slit lamp, McDonald Shadduck) in the rabbit IOP study; format: in vivo, New Zealand White rabbits; parameters: key to Cornea Score: 1: Some loss of transparency. Only the epithelium and/or the anterior half of the stoma are involved. The underlying structures are clearly visible although some cloudiness may be readily apparent; key to Conjunctival congestion Score: A flushed, reddish color predominantly confined to the palpebral conjunctiva with some perilimbal injection but primarily confined to the lower and upper parts of the eye from the 4:00 to 7:00 and 11:00 to 1:00 positions; conditions: for Conjunctival congestion Score: individual rabbit; for Ophthalmic Observation (Slit-Lamp): individual rabbits; for Ocular finding associated with unilateral topical instillation: four times daily up to 31 days, BOL-303242-X 0.05, 0.25 or 0.5 mg/dose, dexamethasone 0.05 mg/dose
# Experimental: On Days 1-31, animals received daily topical doses of the appropriate test article into the right eye. Animals were dosed four times per day, with doses administered 2 hours apart. Doses were administered using a calibrated 50-μL pipette. The eyelids were held close for 10 seconds immediately following dosing. The time of each dose administration was recorded.
# Ophthalmic examinations (slit lamp) were performed prior to the first dosing on Days 5, 12, 22, 26, and 33. Ocular findings were scored according to the McDonald Shadduck system and recorded using a standardized data collection sheet.
# leukocytes (PMN) = assay: Leukocytes (PMN) measurement in aqueous humor, rabbit paracentesis model; format: in vivo; conditions: second paracentesis; for PMN in aqueous humor: individual eyes
# Experimental: (§1) Each rabbit was placed in a restraint device and tagged with the alphanumeric code. The formulations were instilled (50 μl) into the conjunctival sac of both eyes 180, 120, 90 and 30 min before the first paracentesis; then 15, 30, 90 min after the first paracentesis. To perform the first paracentesis the animals were anaesthetized by intravenous injection of 5 mg/kg Zoletil® (Virbac; 2.5 mg/kg tiletamine HCl and 2.5 mg/kg zolazepam HCl) and one drop of local anesthetic (Novesina®, Novartis) was administered to the eye. Anterior chamber paracentesis was performed with a 26 G needle attached to a tuberculin syringe; the needle was introduced into the anterior chamber through the cornea, taking care not to damage the tissues. Two hours after the ® first paracentesis, the animals were sacrificed with 0.4 ml Tanax® (Intervet International B.V.) and the second paracentesis was performed. About 100 μl of aqueous humor were removed at the second paracentesis. Aqueous humor was immediately split in four aliquots and stored at −80° C. until analysis. Then both eyes were enucleated and the iris-ciliary body was carefully excised, placed in polypropylene tubes, and stored at −80° C. until analysis.
# For the determination of the number of leukocytes we used a haemocytometer (Improved Neubauer Chamber; Bright-line. Hausser Scientific) and a Polyvar 2 microscope (Reichert-Jung).
# (§2) Pupillary diameter, PGE2, protein, PMN, and MPO were expressed as mean±SEM. Statistical analysis was performed using one way ANOVA followed by a Newman-Keuls post hoc test. Clinical score was expressed as % of eyes and the statistical analysis was performed using Kruskal-Wallis followed by a Dunn post hoc test. P<0.05 was considered statistically significant in both cases. Prism 4 software (GraphPad Software, Inc.) was used for the analysis and graphs.
# Myeloperoxidase (MPO) = Myeloperoxidase (MPO) activity in iris-ciliary body, rabbit paracentesis model; format: in vivo; conditions: for MPO Unit/g: iris-ciliary body samples collected after the second paracentesis, individual eyes (DX/SX); for MPO activity in iris-ciliary body, Mean: after the second paracentesis
# Experimental: as §1
# The activity of MPO was measured as previously described by Williams et al. The iris-ciliary bodies were carefully dried, weighed and immersed in 1 ml of hexa-decyl-trimethyl-ammonium bromide solution. Then, the samples were sonicated for 10 sec on ice by a ultrasound homogenizer (HD 2070, Bandelin electronic), freeze-thawed three times, sonicated for 10 sec and centrifuged at 14,000 g for 10 min to remove cellular debris. An aliquot of the supernatant (40-200 μl) was diluted to 3 ml with the o-dianisidine 2HCl/H2O2 solution. The change in absorbance at 460 nm was continuously monitored for 5 min by a spectrophotometer (UV/Vis Spectrometer Lambda EZ 201; Perkin Elmer). The slope of the line (Δ/min) was determined for each sample and used to calculate the number of units of MPO in the tissue as follows:
# were ε=11.3 mM^−1. Values were expressed as units of MPO/g of tissue.
# as §2
# [1] = test system: PGE2 in the aqueous humor; assay: Prostaglandin E2 (PGE2) measurement in aqueous humor, rabbit paracentesis model; format: in vivo; conditions: for PGE2 in aqueous humor, statistical significance versus CTR: p<0.05; for PGE2 in aqueous humor, Mean / PGE2 in aqueous humor: second paracentesis; for PGE2 in aqueous humor: individual eyes
# Experimental: as §1
# For the quantitative determination of PGE2 in the aqueous humor we used the PGE2 Immunoassay kit (R&D Systems; Cat. No. KGE004; Lot. No. 240010). Eleven microliters or 16 μl of aqueous humor were diluted to 110 μl or 160 μl with the calibrator diluent solution provided with the kit. One hundred microliters of samples and of standards were load into a 96-well plate and recorded in a plate layout. Samples were treated following the assay procedure described in the kit. A microplate reader (GDV, Italy; model DV 990 B/V6) set at 450 nm (wavelength correction at 540 nm) was used for making the calibration and analyzing the samples.
# as §2
# [2] = 1 mg/g BOL-303242-X 4 x daily, treated right eye, Day 22
# [3] = 5 mg/g BOL-303242-X 4 x daily, treated right eye, Day 5
# [4] = 5 mg/g BOL-303242-X 4 x daily, treated right eye, Day 22
# [5] = 5 mg/g BOL-303242-X 4 x daily, treated right eye, Day 22, 26
# [6] = 5 mg/g BOL-303242-X 4 x daily, treated right eye, Day 26
# [7] = 10 mg/g BOL-303242-X 4 x daily, treated right eye, Day 5, 12
# [8] = 10 mg/g BOL-303242-X 4 x daily, treated right eye, Day 12
# [9] = 10 mg/g BOL-303242-X 4 x daily, treated right eye, Day 26
# [10] = 0.1% topical formulation, listed as BOL
# [11] = 0.5% topical formulation, listed as BOL
# [12] = 1% topical formulation, listed as BOL
# [13] = 0.1% Dexamethasone 4 x daily, treated right eye, Day 5
# [14] = 0.1% Dexamethasone 4 x daily, treated right eye, Day 22
# [15] = 0.1% topical formulation, listed as Dex
structure (smiles),measurement,setting,value
Cc1ccc2c(NCC(O)(CC(C)(C)c3cc(F)cc4c3OCC4)C(F)(F)F)cccc2n1 (centres unmarked) [BOL-303242-X],Conjunctival congestion Score,rabbit eyes; [2],1
same,Ophthalmic Observation (Slit-Lamp),rabbit eyes; [2],Conjunctival congestion
same,Slit-lamp ophthalmic finding,"rabbit eyes; 1 mg/g suspension, dosed right eye (Group D, No. 3043)",subconjunctival hemorrhage
same,Conjunctival congestion Score,rabbit eyes; [3],1
same,Conjunctival congestion Score,rabbit eyes; [4],1
same,Conjunctival congestion Score,rabbit eyes; [5],1
same,Conjunctival congestion Score,rabbit eyes; [6],1
same,Ophthalmic Observation (Slit-Lamp),rabbit eyes; [3],Conjunctival congestion
same,Ophthalmic Observation (Slit-Lamp),rabbit eyes; [4],Conjunctival congestion
same,Ophthalmic Observation (Slit-Lamp),rabbit eyes; [5],Conjunctival congestion
same,Ophthalmic Observation (Slit-Lamp),rabbit eyes; [6],Conjunctival congestion
same,Conjunctival congestion Score,rabbit eyes; [7],1
same,Conjunctival congestion Score,rabbit eyes; [8],1
same,Conjunctival congestion Score,rabbit eyes; [9],1
same,Ophthalmic Observation (Slit-Lamp),"rabbit eyes; 10 mg/g BOL-303242-X 4 x daily, treated right eye, Day 5",Surface area of cornea involvement
same,Ophthalmic Observation (Slit-Lamp),rabbit eyes; [7],Conjunctival Congestion
same,Ophthalmic Observation (Slit-Lamp),rabbit eyes; [8],Conjunctival Congestion
same,Ophthalmic Observation (Slit-Lamp),rabbit eyes; [9],Conjunctival Congestion
same,Surface area of cornea involvement Score,"rabbit eyes; 10 mg/g BOL-303242-X 4 x daily, treated right eye, rabbit 3083, Day 5",1 (1-25% area of stromal cloudiness.)
same,Cornea Score,"rabbit eyes; 10 mg/g BOL-303242-X 4 x daily, treated right eye, rabbit 3083, Day 5, pinpoint corneal scar",1^(2)
same,Slit-lamp ophthalmic finding,"rabbit eyes; 10 mg/g suspension, dosed right eye (Group B, No. 3083)",pinpoint corneal scar
same,Ocular finding associated with unilateral topical instillation,rabbit eyes,sporadic mild conjunctival congestion
same,"PMN in aqueous humor, Mean",leukocytes (PMN); 0.1% topical formulation,28.333 number/μl
same,PMN in aqueous humor,leukocytes (PMN); [10],20 number/μl (4×) and 40 number/μl and 50 number/μl
same,"PMN in aqueous humor, Mean",leukocytes (PMN); 0.5% topical formulation,21.250 number/μl
same,PMN in aqueous humor,leukocytes (PMN); [11],40 number/μl (2×) and 20 number/μl (3×) and 10 number/μl (3×)
same,"PMN in aqueous humor, Mean",leukocytes (PMN); 1% topical formulation,28.750 number/μl
same,PMN in aqueous humor,leukocytes (PMN); [12],30 number/μl (3×) and 20 number/μl (3×) and 40 number/μl (2×)
same,MPO Unit/g,"Myeloperoxidase (MPO); 0.1% BOL, listed as BOL",1.04 Unit/g and 1.00 Unit/g and 1.14 Unit/g and 1.06 Unit/g and 1.22 Unit/g and 0.61 Unit/g and 1.05 Unit/g and 0.65 Unit/g
same,"MPO activity in iris-ciliary body, Mean",Myeloperoxidase (MPO); 0.1% topical formulation,0.971 MPO Unit/g
same,MPO Unit/g,"Myeloperoxidase (MPO); 0.5% BOL, listed as BOL",0.85 Unit/g and 0.93 Unit/g and 0.79 Unit/g and 1.03 Unit/g and 0.75 Unit/g and 0.74 Unit/g and 0.54 Unit/g and 0.58 Unit/g
same,"MPO activity in iris-ciliary body, Mean",Myeloperoxidase (MPO); 0.5% topical formulation,0.775 MPO Unit/g
same,MPO Unit/g,"Myeloperoxidase (MPO); 1% BOL, listed as BOL",0.66 Unit/g and 0.68 Unit/g and 0.49 Unit/g and 0.40 Unit/g and 0.34 Unit/g and 1.02 Unit/g and 0.31 Unit/g and 0.43 Unit/g
same,"MPO activity in iris-ciliary body, Mean",Myeloperoxidase (MPO); 1% topical formulation,0.542 MPO Unit/g
same,"PGE2 in aqueous humor, statistical significance versus CTR",[1]; 0.1% topical formulation,statistically significant versus CTR
same,"PGE2 in aqueous humor, Mean",[1]; 0.1% topical formulation,1.452 ng/mL
same,PGE2 in aqueous humor,[1]; [10],1.62 ng/mL and 1.88 ng/mL and 2.15 ng/mL and 0.70 ng/mL and 1.34 ng/mL and 1.03 ng/mL
same,"PGE2 in aqueous humor, statistical significance versus CTR",[1]; 0.5% topical formulation,statistically significant versus CTR
same,"PGE2 in aqueous humor, Mean",[1]; 0.5% topical formulation,1.384 ng/mL
same,PGE2 in aqueous humor,[1]; [11],2.31 ng/mL and 2.59 ng/mL and 0.53 ng/mL and 0.75 ng/mL and 0.80 ng/mL and 1.62 ng/mL and 1.09 ng/mL
same,"PGE2 in aqueous humor, Mean",[1]; 1% topical formulation,2.168 ng/mL
same,PGE2 in aqueous humor,[1]; [12],0.50 ng/mL and 1.87 ng/mL and 1.71 ng/mL and 4.04 ng/mL and 1.11 ng/mL and 3.78 ng/mL
"C[C@@H]1C[C@H]2[C@@H]3CCC4=CC(=O)C=C[C@]4(C)[C@@]3(F)[C@@H](O)C[C@]2(C)[C@@]1(O)C(=O)CO [dexamethasone, reference compound]",Conjunctival congestion Score,rabbit eyes; [13],1
same,Conjunctival congestion Score,rabbit eyes; [14],1
same,Ophthalmic Observation (Slit-Lamp),rabbit eyes; [13],Conjunctival Congestion
same,Ophthalmic Observation (Slit-Lamp),rabbit eyes; [14],Conjunctival Congestion
same,Ocular finding associated with unilateral topical instillation,rabbit eyes,sporadic mild conjunctival congestion
same,"PMN in aqueous humor, Mean",leukocytes (PMN); 0.1% topical formulation,30.000 number/μl
same,PMN in aqueous humor,leukocytes (PMN); [15],20 number/μl (3×) and 50 number/μl and 40 number/μl and 30 number/μl
same,MPO Unit/g,"Myeloperoxidase (MPO); 0.1% Dex, listed as Dex",0.71 Unit/g and 0.60 Unit/g and 1.32 Unit/g and 0.48 Unit/g (2×) and 0.39 Unit/g and 0.45 Unit/g and 0.51 Unit/g
same,"MPO activity in iris-ciliary body, Mean",Myeloperoxidase (MPO); 0.1% topical formulation,0.618 MPO Unit/g
same,"PGE2 in aqueous humor, Mean",[1]; 0.1% topical formulation,2.263 ng/mL
same,PGE2 in aqueous humor,[1]; [15],2.51 ng/ml and 2.32 ng/ml (2×) and 2.10 ng/ml and 3.03 ng/ml and 1.30 ng/ml
